Where two headings read alike, the source gives them in different places.
Assays:
[1] = test system: Coronary Blood Flow (descending branch of the left coronary artery); assay: Coronary dilating activity: coronary blood flow in narcotized dogs with open thoracic cavity; assay type: in vivo; conditions: for ED (50% increase): Canis lupus familiaris, read-out: Dose increasing coronary blood flow by 50%
Procedure: The experiments have been conducted on narcotized dogs with the open thoracic cavity. The blood flow was registered in the descending branch of the left coronary artery.
The blood flow was determined before and after the injection of the proposed compounds. The proposed compound was introduced in a single dose, intravenously, followed by calculating the increase in the coronary blood flow in percent.

Arterial Pressure = assay: Hypotensive activity in spontaneously-hypertensive rats; assay type: in vivo, spontaneously-hypertensive rats (SHR) of Okamoto-Aoki line; conditions: SHR, single 10 mg/kg dose into the stomach; for Hypotensive activity: Table 2
Procedure: The experiments were conducted on spontaneously-hypertensive rats (SHR) of Okamoto-Aoki line.

[2] = test system: coronary dilating activity; conditions: clinical practice, in words; cited from earlier work
[3] = large doses, in words; cited from earlier work
Acute toxicity in mice = conditions: mouse, in vivo, ip
[4] = test system: systemic arterial pressure and cardiac output; assay: Systemic arterial pressure and cardiac output in narcotized dogs; assay type: in vivo; conditions: 0.01-0.1 mg/kg, intravenous
Solubility = assay type: physicochemical
Chemical stability = assay type: physicochemical
in vivo = conditions: mouse, ip
mongrel white mice = assay: Acute toxicity in mice; conditions: ratio versus nifedipin and papaverine
[5] = 0.1 mg/kg, single dose, intravenous, narcotized dogs
[6] = 0.5 mg/kg, single dose, intravenous, narcotized dogs
[7] = 0.01 mg/kg, single dose, intravenous, narcotized dogs

SMILES: COc1ccc(Cc2nccc3cc(OC)c(OC)cc23)cc1OC [Papaverine, reference compound]
- Duration of effect [1, 5]: 5 min
- Increase of coronary blood flow [1, 5]: 20%
- Duration of effect [1, 6]: 7 min
- Increase of coronary blood flow [1, 6]: 30%
- ED (50% increase) ([1]; iv): 0.9 mg/kg
- Duration of hypotensive effect (Arterial Pressure): 3 h
- Effect on arterial pressure (in words) (Arterial Pressure): insignificant effect on arterial pressure
- Reduction of (systolic) arterial pressure (Arterial Pressure): 5%
- Hypotensive activity (Arterial Pressure): 5
- Coronary dilating activity [2]: low coronary dilating activity
- Toxicity [3]: rather high
- LD50 at 336 h (Acute toxicity in mice): 91 mg/kg

SMILES: COC(=O)C1=C(C)NC(=O)NC1c1ccccc1SC(F)F (stereo not shown) [Proposed compound, 2-oxo-4-(2'-difluoromethylthiophenyl)-5-methoxycarbonyl-6-methyl-1,2,3,4-tetrahydropyrimidine]
- Increase of coronary blood flow ([1]; 0.001 mg/kg, single dose, intravenous, narcotized dogs): 19%
- Duration of effect [1, 7]: 35 min
- Increase of coronary blood flow [1, 7]: 79%
- Duration of effect [1, 5]: 60 min
- Increase of coronary blood flow [1, 5]: 107%
- ED (50% increase) ([1]; single dose, intravenous, narcotized dogs): 0.006 mg/kg
- Duration of effect compared with nifedipin ([1]; ratio versus nifedipin): 1.7 times
- Strong and prolonged vasodilating effect with relation to coronary vessels, compared with nifedipin ([1]; ratio versus nifedipin (summary)): 1.7 times
- Coronary dilating activity compared with papaverine, by doses ([1]; ratio versus papaverine): 150 times
- Duration of effect compared with papaverine ([1]; ratio versus papaverine): over 10 times
- Strong and prolonged vasodilating effect with relation to coronary vessels, compared with papaverine ([1]; ratio versus papaverine (summary)): about 10 times
- Coronary dilating effect compared with nifedipin ([1]; versus nifedipin, in words): approximately equal in activity to nifedipin
- Change of systemic arterial pressure and cardiac output [4]: did not change the systemic arterial pressure and the cardiac output
- Duration of hypotensive effect (Arterial Pressure): 6 h
- Effect on arterial pressure (in words) (Arterial Pressure): no substantial effect on arterial pressure
- Reduction of (systolic) arterial pressure (Arterial Pressure): 8%
- Hypotensive activity (Arterial Pressure): 8
- Solubility in organic solvents (Solubility; ethyl alcohol, acetone, chloroform and other organic solvents): comparatively easily-soluble in ethyl alcohol, acetone, chloroform and other organic solvents
- Solubility in water (Solubility; water): insoluble in water
- Chemical stability (Chemical stability): chemically stable
- LD50 at 336 h (in vivo): > 2000 mg/kg
- Toxicity, times lower than that of nifedipin and papaverine (mongrel white mice): 10-20 times

— patent publication US4738965A, “2-oxo-4-(2'-difl uoromethylthiophenyl)-5-methoxycarbonyl-6-methyl-1,2,3,4-tetrahydropyrimi dine” (Institut Organischskogo Sinteza Akademii Nauk SSR, priority 1987, dated 1988)
